Consider one compound from patent US5885786A, “Methods for screening of substances for inhibition of multidrug resistance” (priority 1996, dated 1999).

In assay [1] the test system is glycosylceramide formation in MCF-7-AdrR cells. Briefly: Inhibition of [3H]glycosylceramide formation in MCF-7-AdrR cells (TLC, liquid scintillation). In kind it is cell-based. The note with it: for inhibition of glycosylceramide synthesis (in words): MCF-7-AdrR cells. The protocol:
FIG. 9. […] Values represent the mean of determinations from three separate experiments, and are calculated as the percent glycosylceramide in the total lipid tritium extract.
FIG. 11A and FIG. 11B. […] FIG. 11: A Autoradiography. […] For autoradiography equal aliquots by volume of total lipid extract were applied to TLC plates. […] [^3 H]Glycosylceramide, visualized in panel A, was quantitated as described in the legend to FIG. 9. Each value represents mean±SEM of determinations from three separate experiments.
FIG. 12. […] [^3 H]Glycosylceramide was quantitated as described in the legend to FIG. 9. Results represents the mean±SEM of determinations from three separate experiments.
(§1) MCF-7 cells, grown in medium containing 10% FBS, were switched to media containing 5% FBS. Cell lipids were radiolabeled by adding [^3 H]serine (2.0 μCi/ml), [^3 H]palmitic acid (1.0 μCi/ml), or [^3 H]galactose (1.0 μCi/ml) to the culture medium for the indicated times. Other radiolabels can be substituted. Cells were then rinsed twice with PBS, pH 7.4, and 2 ml of ice-cold methanol containing 2% acetic acid was added. The cells were scraped free, transferred to glass test tubes (13×100 mm), and lipids were extracted by the addition of chloroform (2 ml) followed by water (2 ml). The resulting organic lower phase was withdrawn and evaporated under a stream of nitrogen. Lipids were resuspended in 100 μL of chloroform/methanol (1:1, v/v), and aliquots were applied to TLC plates.
Lipid analysis was carried out by TLC using solvent system I: chloroform/methanol/ammonium hydroxide (40:10:1, v/v) for glycosylceramide separation, solvent system II: chloroform/methanol/water (60:40:8, v/v) for sphingoglycolipid separation, or solvent system III: chloroform/methanol/acetic acid/water (50:30:7:3, v/v) for sphingomyelin separation. For determination of ceramides, an aliquot of the chloroform-soluble lipids was base-hydrolyzed in 0.1N KOH in methanol for 1 h at 37° C., lipids were re-extracted, and separated by TLC using solvent system IV: hexane/diethyl ether/formic acid (60:40:1, v/v).
Radiochromatograms were sprayed with EN^3 HANCE, and exposed for 3-7 days for autofluorgraphy. TLC areas, aligned with bands on the autoradiographs or with iodine-stained commercial lipid standards, were scraped from the plate. Water (0.5 ml) was added to the plate scrapings followed by 4.5 ml of EcoLume counting fluid, and the samples were quantitated by liquid scintillation spectrometry.

For assay [2], the system named is glycosphingolipid synthesis in MCF-7-AdrR cells. The experiment in a line: Synthesis of glycosphingolipids in MCF-7-AdrR cells labeled with [3H]galactose. In kind it is cell-based. To be noted: for inhibition at 5 µM: 5.0 μM tamoxifen, [3H]galactose 24 h, FIG. 10. How it is done: FIG. 10. […] Glc-cer, glycosylceramide; Lac-cer, lactosylceramide; Con, control; Tam, tamoxifen.
as §1
When using [^3 H]galactose, radiolabeled cells were transferred to glass tubes with PBS (1 ml), glucocerebroside (2.5 μg) was added to aid recovery, and lipids were extracted consecutively three times with 2 ml of chloroform/methanol (1:1, v/v).

The test system of assay [3] is glycosylceramide synthesis in MCF-7-AdrR cells. Briefly: Glycosylceramide levels in MDR cells following drug treatment, [3H]serine 48 h. To be noted: FIG. 15B. The format is cell-based.
Assay [4] concerns acid sphingomyelinase. To be noted: literature; cited from earlier work.

Molecules are shown by their SMILES. Read-outs that look alike come from different tables or passages of the source.

With `CC/C(=C(\c1ccccc1)c1ccc(OCCN(C)C)cc1)c1ccccc1` [tamoxifen], the inhibition at 5 µM in assay [1] (5.0 μM drug, 24 h, MCF-7-AdrR, FIG. 11B, read-out: inhibition of glycosylceramide formation (cpm tritium)) is 65%; in assay [2] (read-out: reduction of ganglioside level) it was 33%; in assay [2] (read-out: reduction of glycosylceramide level), 69%; in assay [2] (read-out: reduction of lactosylceramide level), 74%. Besides, the IC50 in assay [1] (24 h incubation with [3H]palmitic acid, FIG. 12, read-out: half-maximal inhibition (IC50) of cellular [3H]glycosylceramide formation) was determined as 1000 nM. For the same compound, the “maximal inhibitory effect on glycosylceramide formation (in words)” value in assay [1] (FIG. 12) is given as “highest maximal effect”. Also, the “inhibition of glycosylceramide synthesis (in words)” value is “strongly inhibited” in assay [1]; “drastically inhibit” in assay [1] (listed as Tamoxifen); “greatly retarded” in assay [3] (5.0 μM, alone or with adriamycin 2.5 μM). The “synthesis of higher gangliosides (in words)” value in assay [2] (tamoxifen, MCF-7-AdrR) is “suppress synthesis of higher gangliosides”. Further, the “inhibition of glycosylceramide production, tamoxifen added to adriamycin” value in assay [3] (tamoxifen 5.0 μM + adriamycin 2.5 μM) amounted to 72%. Further, in assay [4], the “inhibition of acid sphingomyelinase (in words)” value is “inhibition of acid sphingomyelinase activity”.

What is called IC50 is the midpoint of a concentration-inhibition curve.
